{"source": "paper PMC6199309", "about": "“A therapeutic approach to pantothenate kinase associated neurodegeneration” (Nature Communications, 2018)", "type_in_all_cases": "binding", "key": {"[1]": {"target": "T1, ABL1(F317L)-nonphosphorylated (Homo sapiens, UniProt P00519, F317L)", "T1 construct": "purchased DiscoverX KINOMEscan", "T1 sequence (P00519 whole entry F317L)": "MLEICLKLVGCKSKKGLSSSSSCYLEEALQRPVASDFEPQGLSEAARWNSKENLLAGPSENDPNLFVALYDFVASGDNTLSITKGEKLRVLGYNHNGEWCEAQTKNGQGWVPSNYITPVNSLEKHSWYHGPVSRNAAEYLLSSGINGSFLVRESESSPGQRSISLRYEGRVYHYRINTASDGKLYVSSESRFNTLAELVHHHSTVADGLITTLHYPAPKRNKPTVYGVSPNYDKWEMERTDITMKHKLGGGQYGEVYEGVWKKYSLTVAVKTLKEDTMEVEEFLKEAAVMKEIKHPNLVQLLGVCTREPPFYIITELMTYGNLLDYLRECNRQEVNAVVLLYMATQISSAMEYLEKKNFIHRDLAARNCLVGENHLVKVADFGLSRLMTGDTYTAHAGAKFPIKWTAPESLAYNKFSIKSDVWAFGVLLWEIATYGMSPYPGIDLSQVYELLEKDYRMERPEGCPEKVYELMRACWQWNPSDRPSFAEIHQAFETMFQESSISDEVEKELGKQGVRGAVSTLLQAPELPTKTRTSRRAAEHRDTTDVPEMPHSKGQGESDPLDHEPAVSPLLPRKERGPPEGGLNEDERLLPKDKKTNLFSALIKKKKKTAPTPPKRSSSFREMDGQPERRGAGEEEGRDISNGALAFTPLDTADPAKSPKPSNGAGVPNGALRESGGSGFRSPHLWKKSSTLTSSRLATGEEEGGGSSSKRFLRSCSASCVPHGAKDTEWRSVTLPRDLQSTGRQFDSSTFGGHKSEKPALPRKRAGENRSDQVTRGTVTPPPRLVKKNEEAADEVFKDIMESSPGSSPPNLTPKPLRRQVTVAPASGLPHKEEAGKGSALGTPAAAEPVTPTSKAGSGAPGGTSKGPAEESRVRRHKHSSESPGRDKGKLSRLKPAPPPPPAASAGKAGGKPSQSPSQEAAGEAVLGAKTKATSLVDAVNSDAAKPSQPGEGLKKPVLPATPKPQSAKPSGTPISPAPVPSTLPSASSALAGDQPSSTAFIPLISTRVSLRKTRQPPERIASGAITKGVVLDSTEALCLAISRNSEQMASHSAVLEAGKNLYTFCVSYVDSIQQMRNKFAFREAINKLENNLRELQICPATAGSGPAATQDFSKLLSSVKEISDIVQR", "assay": "KINOMEscan", "details": "read-out: %Ctrl @ 10000nM"}, "AKT3": {"target": "T2, AKT3 (Homo sapiens, UniProt Q9Y243)", "T2 construct": "purchased DiscoverX KINOMEscan", "assay": "KINOMEscan", "details": "read-out: %Ctrl @ 10000nM"}, "BMPR2": {"target": "T3, BMPR2 (Homo sapiens, UniProt Q13873)", "T3 construct": "purchased DiscoverX KINOMEscan", "assay": "KINOMEscan", "details": "read-out: %Ctrl @ 10000nM"}, "BRAF": {"target": "T4, BRAF (Homo sapiens, UniProt P15056)", "T4 construct": "purchased DiscoverX KINOMEscan", "assay": "KINOMEscan", "details": "read-out: %Ctrl @ 10000nM"}, "CHEK1": {"target": "T5, CHEK1 (Homo sapiens, UniProt O14757)", "T5 construct": "purchased DiscoverX KINOMEscan", "assay": "KINOMEscan", "details": "read-out: %Ctrl @ 10000nM"}, "ERN1": {"target": "T6, ERN1 (Homo sapiens, UniProt O75460)", "T6 construct": "purchased DiscoverX KINOMEscan", "T6 sequence (O75460 19-977)": "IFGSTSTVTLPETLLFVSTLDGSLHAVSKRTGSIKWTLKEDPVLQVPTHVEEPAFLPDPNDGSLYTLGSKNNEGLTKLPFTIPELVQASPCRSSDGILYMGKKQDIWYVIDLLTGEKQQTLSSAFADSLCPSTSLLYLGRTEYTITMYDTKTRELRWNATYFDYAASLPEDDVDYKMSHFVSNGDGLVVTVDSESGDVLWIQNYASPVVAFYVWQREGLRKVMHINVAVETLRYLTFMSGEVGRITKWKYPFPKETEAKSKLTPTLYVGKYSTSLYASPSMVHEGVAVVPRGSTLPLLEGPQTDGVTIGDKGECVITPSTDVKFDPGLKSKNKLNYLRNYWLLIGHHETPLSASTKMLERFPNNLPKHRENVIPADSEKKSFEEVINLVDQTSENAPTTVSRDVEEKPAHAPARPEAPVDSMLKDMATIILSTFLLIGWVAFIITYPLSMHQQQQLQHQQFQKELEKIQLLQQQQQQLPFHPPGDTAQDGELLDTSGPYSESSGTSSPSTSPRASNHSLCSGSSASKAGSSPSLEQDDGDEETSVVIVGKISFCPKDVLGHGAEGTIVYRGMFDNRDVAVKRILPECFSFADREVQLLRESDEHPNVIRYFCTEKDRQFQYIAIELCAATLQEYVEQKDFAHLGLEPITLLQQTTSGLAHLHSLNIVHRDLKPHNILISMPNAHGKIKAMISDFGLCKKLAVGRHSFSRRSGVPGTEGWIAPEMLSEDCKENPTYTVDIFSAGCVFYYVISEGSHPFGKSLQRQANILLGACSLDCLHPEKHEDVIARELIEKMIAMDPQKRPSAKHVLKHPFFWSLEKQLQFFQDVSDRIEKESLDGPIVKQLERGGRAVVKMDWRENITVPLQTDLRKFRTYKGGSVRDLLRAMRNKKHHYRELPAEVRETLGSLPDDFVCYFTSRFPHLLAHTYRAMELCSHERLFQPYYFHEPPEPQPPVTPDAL", "assay": "KINOMEscan", "details": "read-out: %Ctrl @ 10000nM"}, "FRK": {"target": "T7, FRK (Homo sapiens, UniProt P42685)", "T7 construct": "purchased DiscoverX KINOMEscan", "assay": "KINOMEscan", "details": "read-out: %Ctrl @ 10000nM"}, "GCN2(Kin.Dom.2,S808G)": {"target": "T8, GCN2(Kin.Dom.2,S808G) (Homo sapiens, UniProt Q9P2K8, S808G)", "T8 construct": "GCN2(Kin.Dom.2,S808G); purchased DiscoverX KINOMEscan", "T8 sequence (Q9P2K8 590-1001 S808G limits assumed)": "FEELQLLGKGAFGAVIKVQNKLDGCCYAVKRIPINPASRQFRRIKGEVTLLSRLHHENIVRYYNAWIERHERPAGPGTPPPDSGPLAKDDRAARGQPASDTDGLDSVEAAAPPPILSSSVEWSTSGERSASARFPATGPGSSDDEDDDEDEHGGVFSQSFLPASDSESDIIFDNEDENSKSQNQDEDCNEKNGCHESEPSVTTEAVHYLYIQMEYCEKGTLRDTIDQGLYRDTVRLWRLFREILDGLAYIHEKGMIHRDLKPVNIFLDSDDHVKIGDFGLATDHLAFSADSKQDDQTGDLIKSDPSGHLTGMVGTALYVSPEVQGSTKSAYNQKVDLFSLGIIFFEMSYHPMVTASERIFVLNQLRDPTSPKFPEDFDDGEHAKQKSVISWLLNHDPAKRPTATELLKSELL", "assay": "KINOMEscan", "details": "read-out: %Ctrl @ 10000nM"}, "IGF1R": {"target": "T9, IGF1R (Homo sapiens, UniProt P08069)", "T9 construct": "purchased DiscoverX KINOMEscan", "T9 sequence (P08069 31-1367)": "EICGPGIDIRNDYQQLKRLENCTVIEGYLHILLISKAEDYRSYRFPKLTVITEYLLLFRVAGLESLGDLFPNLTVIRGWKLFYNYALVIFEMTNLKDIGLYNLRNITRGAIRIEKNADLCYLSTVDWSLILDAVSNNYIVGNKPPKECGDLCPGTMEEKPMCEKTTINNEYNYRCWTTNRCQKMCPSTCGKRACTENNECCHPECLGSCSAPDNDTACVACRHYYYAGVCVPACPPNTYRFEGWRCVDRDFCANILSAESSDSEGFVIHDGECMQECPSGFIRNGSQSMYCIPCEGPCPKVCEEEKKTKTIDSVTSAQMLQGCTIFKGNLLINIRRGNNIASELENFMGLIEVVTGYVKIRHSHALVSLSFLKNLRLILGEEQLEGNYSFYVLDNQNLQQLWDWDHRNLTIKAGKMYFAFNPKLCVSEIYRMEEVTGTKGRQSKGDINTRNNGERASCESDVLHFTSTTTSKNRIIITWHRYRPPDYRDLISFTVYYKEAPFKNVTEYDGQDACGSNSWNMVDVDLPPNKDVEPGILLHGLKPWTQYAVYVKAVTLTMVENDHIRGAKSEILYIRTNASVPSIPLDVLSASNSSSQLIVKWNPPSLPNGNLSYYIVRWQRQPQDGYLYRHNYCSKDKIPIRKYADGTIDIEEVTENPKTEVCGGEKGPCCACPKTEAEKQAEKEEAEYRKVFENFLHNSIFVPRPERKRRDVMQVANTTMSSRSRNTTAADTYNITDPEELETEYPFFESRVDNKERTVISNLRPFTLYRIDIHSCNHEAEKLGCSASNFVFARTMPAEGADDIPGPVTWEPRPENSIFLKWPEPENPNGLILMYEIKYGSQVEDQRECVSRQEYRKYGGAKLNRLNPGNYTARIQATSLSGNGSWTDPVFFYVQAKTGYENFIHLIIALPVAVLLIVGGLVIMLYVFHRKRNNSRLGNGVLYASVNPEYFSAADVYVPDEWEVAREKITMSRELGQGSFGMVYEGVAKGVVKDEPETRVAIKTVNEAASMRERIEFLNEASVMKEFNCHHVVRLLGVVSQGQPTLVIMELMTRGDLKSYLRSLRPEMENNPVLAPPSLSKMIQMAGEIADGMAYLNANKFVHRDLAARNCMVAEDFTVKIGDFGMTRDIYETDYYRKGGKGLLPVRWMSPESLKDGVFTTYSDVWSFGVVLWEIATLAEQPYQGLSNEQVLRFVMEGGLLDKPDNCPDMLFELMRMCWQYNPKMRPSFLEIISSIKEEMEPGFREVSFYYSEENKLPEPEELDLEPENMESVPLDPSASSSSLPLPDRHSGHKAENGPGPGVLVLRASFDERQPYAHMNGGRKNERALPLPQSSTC", "assay": "KINOMEscan", "details": "read-out: %Ctrl @ 10000nM"}, "ITK": {"target": "T10, ITK (Homo sapiens, UniProt Q08881)", "T10 construct": "purchased DiscoverX KINOMEscan", "assay": "KINOMEscan", "details": "read-out: %Ctrl @ 10000nM"}, "JNK2": {"target": "T11, JNK2 (Homo sapiens, UniProt P45984)", "T11 construct": "purchased DiscoverX KINOMEscan", "assay": "KINOMEscan", "details": "read-out: %Ctrl @ 10000nM"}, "JNK3": {"target": "T12, JNK3 (Homo sapiens, UniProt P53779)", "T12 construct": "purchased DiscoverX KINOMEscan", "assay": "KINOMEscan", "details": "read-out: %Ctrl @ 10000nM"}, "MEK3": {"target": "T13, MEK3 (Homo sapiens, UniProt P46734)", "T13 construct": "purchased DiscoverX KINOMEscan", "assay": "KINOMEscan", "details": "read-out: %Ctrl @ 10000nM"}, "NEK9": {"target": "T14, NEK9 (Homo sapiens, UniProt Q8TD19)", "T14 construct": "purchased DiscoverX KINOMEscan", "assay": "KINOMEscan", "details": "read-out: %Ctrl @ 10000nM"}, "p38-beta": {"target": "T15, p38-beta (Homo sapiens, UniProt Q15759)", "T15 construct": "purchased DiscoverX KINOMEscan", "assay": "KINOMEscan", "details": "read-out: %Ctrl @ 10000nM"}, "PCTK3": {"target": "T16, PCTK3 (Homo sapiens, UniProt Q07002)", "T16 construct": "purchased DiscoverX KINOMEscan", "assay": "KINOMEscan", "details": "read-out: %Ctrl @ 10000nM"}, "PIP5K2C": {"target": "T17, PIP5K2C (Homo sapiens, UniProt Q8TBX8)", "T17 construct": "purchased DiscoverX KINOMEscan", "assay": "KINOMEscan", "details": "read-out: %Ctrl @ 10000nM"}, "PLK2": {"target": "T18, PLK2 (Homo sapiens, UniProt Q9NYY3)", "T18 construct": "purchased DiscoverX KINOMEscan", "assay": "KINOMEscan", "details": "read-out: %Ctrl @ 10000nM"}, "RIPK1": {"target": "T19, RIPK1 (Homo sapiens, UniProt Q13546)", "T19 construct": "purchased DiscoverX KINOMEscan", "assay": "KINOMEscan", "details": "read-out: %Ctrl @ 10000nM"}, "ROCK1": {"target": "T20, ROCK1 (Homo sapiens, UniProt Q13464)", "T20 construct": "purchased DiscoverX KINOMEscan", "assay": "KINOMEscan", "details": "read-out: %Ctrl @ 10000nM"}, "[2]": {"target": "T21, RPS6KA5(Kin.Dom.2-C-terminal) (Homo sapiens, UniProt O75582)", "T21 construct": "RPS6KA5(Kin.Dom.2-C-terminal); purchased DiscoverX KINOMEscan", "T21 sequence (O75582 388-802 limits assumed)": "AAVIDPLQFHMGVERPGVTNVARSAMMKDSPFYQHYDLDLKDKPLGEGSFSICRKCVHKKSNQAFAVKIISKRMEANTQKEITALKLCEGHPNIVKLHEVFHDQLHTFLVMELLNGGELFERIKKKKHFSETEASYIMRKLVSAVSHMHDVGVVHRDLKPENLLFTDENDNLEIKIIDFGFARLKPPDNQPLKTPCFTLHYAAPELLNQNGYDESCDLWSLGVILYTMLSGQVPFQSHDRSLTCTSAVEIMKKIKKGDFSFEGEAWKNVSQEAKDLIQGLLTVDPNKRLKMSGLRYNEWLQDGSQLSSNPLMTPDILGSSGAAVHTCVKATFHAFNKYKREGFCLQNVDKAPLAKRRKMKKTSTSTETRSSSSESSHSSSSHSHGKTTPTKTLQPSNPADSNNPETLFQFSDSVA", "assay": "KINOMEscan", "details": "read-out: %Ctrl @ 10000nM"}, "TBK1": {"target": "T22, TBK1 (Homo sapiens, UniProt Q9UHD2)", "T22 construct": "purchased DiscoverX KINOMEscan", "assay": "KINOMEscan", "details": "read-out: %Ctrl @ 10000nM"}, "TRKC": {"target": "T23, TRKC (Homo sapiens, UniProt Q16288)", "T23 construct": "purchased DiscoverX KINOMEscan", "T23 sequence (Q16288 32-839)": "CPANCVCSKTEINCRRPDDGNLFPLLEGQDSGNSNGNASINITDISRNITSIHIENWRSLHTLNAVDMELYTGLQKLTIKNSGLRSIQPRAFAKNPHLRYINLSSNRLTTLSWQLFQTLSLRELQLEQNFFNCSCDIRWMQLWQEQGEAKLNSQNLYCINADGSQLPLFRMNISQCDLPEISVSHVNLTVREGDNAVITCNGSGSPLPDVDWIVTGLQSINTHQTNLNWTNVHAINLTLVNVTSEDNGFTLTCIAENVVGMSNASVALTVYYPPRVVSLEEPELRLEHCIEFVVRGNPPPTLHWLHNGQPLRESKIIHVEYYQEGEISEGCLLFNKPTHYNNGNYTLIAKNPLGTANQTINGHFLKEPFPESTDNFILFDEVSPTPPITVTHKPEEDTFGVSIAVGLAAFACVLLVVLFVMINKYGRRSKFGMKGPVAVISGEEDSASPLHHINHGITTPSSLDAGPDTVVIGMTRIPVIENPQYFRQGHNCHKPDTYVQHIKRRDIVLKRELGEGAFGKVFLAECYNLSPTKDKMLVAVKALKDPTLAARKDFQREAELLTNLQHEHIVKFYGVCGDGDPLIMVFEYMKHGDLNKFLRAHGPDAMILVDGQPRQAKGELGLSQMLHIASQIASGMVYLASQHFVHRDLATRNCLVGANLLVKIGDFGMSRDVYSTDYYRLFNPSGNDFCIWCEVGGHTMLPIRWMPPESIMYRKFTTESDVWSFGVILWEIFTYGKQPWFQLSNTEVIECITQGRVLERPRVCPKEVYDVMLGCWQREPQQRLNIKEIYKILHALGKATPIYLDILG", "assay": "KINOMEscan", "details": "read-out: %Ctrl @ 10000nM"}, "VRK2": {"target": "T24, VRK2 (Homo sapiens, UniProt Q86Y07)", "T24 construct": "DNA label for qPCR (T7 phage fusion or DNA tag); purchased DiscoverX scanMAX; host or cells: E. coli BL21-derived (T7 phage) or HEK-293", "assay": "KINOMEscan", "details": "read-out: %Ctrl @ 10000nM"}, "468 human kinases": {"system": "468 human kinases", "assay": "KINOMEscan scanMAX panel"}, "[3]": {"details": "10000 nM, 403 non-mutant kinases"}}, "note": "“Also recorded” adds a separate entry of the source.", "data": [{"smiles": "CC(C)c1ccc(CC(=O)N2CCN(c3ccc(C#N)nn3)CC2)cc1", "note": "[PZ-2891, 6-(4-(2-(4-isopropylphenyl)acetyl)piperazin-1-yl)pyridazine-3-carbonitrile]", "values": [{"measurement": "remaining binding at 10 µM", "setting": "[1]", "result": 73, "unit": "%"}, {"measurement": "remaining binding at 10 µM", "setting": "AKT3", "result": 82, "unit": "%"}, {"measurement": "remaining binding at 10 µM", "setting": "BMPR2", "result": 87, "unit": "%"}, {"measurement": "remaining binding at 10 µM", "setting": "BRAF", "result": 100, "unit": "%"}, {"measurement": "remaining binding at 10 µM", "setting": "CHEK1", "result": 83, "unit": "%"}, {"measurement": "remaining binding at 10 µM", "setting": "ERN1", "result": 82, "unit": "%"}, {"measurement": "remaining binding at 10 µM", "setting": "FRK", "result": 86, "unit": "%"}, {"measurement": "remaining binding at 10 µM", "setting": "GCN2(Kin.Dom.2,S808G)", "result": 87, "unit": "%"}, {"measurement": "remaining binding at 10 µM", "setting": "IGF1R", "result": 91, "unit": "%"}, {"measurement": "remaining binding at 10 µM", "setting": "ITK", "result": 89, "unit": "%"}, {"measurement": "remaining binding at 10 µM", "setting": "JNK2", "result": 79, "unit": "%"}, {"measurement": "remaining binding at 10 µM", "setting": "JNK3", "result": 88, "unit": "%"}, {"measurement": "remaining binding at 10 µM", "setting": "MEK3", "result": 61, "unit": "%"}, {"measurement": "remaining binding at 10 µM", "setting": "NEK9", "result": 96, "unit": "%"}, {"measurement": "remaining binding at 10 µM", "setting": "p38-beta", "result": 96, "unit": "%"}, {"measurement": "remaining binding at 10 µM", "setting": "PCTK3", "result": 92, "unit": "%"}, {"measurement": "remaining binding at 10 µM", "setting": "PIP5K2C", "result": 85, "unit": "%"}, {"measurement": "remaining binding at 10 µM", "setting": "PLK2", "result": 84, "unit": "%"}, {"measurement": "remaining binding at 10 µM", "setting": "RIPK1", "result": 98, "unit": "%"}, {"measurement": "remaining binding at 10 µM", "setting": "ROCK1", "result": 100, "unit": "%"}, {"measurement": "remaining binding at 10 µM", "setting": "[2]", "result": 96, "unit": "%"}, {"measurement": "remaining binding at 10 µM", "setting": "TBK1", "result": 60, "unit": "%"}, {"measurement": "remaining binding at 10 µM", "setting": "TRKC", "result": 100, "unit": "%"}, {"measurement": "remaining binding at 10 µM", "setting": "VRK2", "result": 70, "unit": "%"}, {"measurement": "inhibitory activity in screen of 468 kinases", "setting": "468 human kinases; 10 μM", "result": "did not exhibit off-target inhibition; also recorded: did not have significant inhibitory activity"}, {"measurement": "Number of Hits S(1)", "setting": "468 human kinases; [3]", "result": 1}, {"measurement": "Number of Hits S(10)", "setting": "468 human kinases; [3]", "result": 2}, {"measurement": "Number of Hits S(35)", "setting": "468 human kinases; [3]", "result": 2}]}]}
